Data from patent publication US5223526A, “Pyrazole carboxanilide fungicides and use” (Monsanto Company, priority 1992, dated 1993).

Assays:
succinate dehydrogenase = target: T1, succinate dehydrogenase (Botrytis cinerea, UniProt A0A384J5E4+A0A384J8V8+A0A384JHJ5); experiment: Enzyme inhibition: succinate dehydrogenase activity in Botrytis cinerea mitochondria (DCPIP reduction); type: biochemical; details: concentration required to inhibit the rate of DCPIP reduction by 50%; Botrytis cinerea isolate Nick mitochondria; read-out: I50 (μM conc.)
T1 construct: succinate-DCPIP reductase assay with KCN
T1 sequence (A0A384J5E4 1-300): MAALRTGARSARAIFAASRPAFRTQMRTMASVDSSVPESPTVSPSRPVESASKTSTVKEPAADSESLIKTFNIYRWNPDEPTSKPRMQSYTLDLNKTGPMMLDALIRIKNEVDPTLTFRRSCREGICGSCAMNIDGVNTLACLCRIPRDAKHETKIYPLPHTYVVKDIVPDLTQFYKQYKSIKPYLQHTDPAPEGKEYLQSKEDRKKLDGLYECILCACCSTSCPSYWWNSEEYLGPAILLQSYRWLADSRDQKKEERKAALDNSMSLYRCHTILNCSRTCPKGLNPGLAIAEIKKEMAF
T1 sequence (A0A384J8V8 1-189): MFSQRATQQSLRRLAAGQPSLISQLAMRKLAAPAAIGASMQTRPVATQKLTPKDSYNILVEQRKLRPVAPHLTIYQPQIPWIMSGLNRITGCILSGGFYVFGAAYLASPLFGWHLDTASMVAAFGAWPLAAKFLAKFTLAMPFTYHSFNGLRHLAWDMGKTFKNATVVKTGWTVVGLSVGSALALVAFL
T1 sequence (A0A384JHJ5 1-192): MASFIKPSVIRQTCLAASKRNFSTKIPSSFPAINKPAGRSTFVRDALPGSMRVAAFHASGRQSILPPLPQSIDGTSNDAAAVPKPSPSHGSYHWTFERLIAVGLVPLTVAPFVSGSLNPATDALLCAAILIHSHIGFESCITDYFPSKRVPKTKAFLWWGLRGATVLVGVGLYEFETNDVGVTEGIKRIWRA
T1 sequence (A0A384K456 1-647 partner): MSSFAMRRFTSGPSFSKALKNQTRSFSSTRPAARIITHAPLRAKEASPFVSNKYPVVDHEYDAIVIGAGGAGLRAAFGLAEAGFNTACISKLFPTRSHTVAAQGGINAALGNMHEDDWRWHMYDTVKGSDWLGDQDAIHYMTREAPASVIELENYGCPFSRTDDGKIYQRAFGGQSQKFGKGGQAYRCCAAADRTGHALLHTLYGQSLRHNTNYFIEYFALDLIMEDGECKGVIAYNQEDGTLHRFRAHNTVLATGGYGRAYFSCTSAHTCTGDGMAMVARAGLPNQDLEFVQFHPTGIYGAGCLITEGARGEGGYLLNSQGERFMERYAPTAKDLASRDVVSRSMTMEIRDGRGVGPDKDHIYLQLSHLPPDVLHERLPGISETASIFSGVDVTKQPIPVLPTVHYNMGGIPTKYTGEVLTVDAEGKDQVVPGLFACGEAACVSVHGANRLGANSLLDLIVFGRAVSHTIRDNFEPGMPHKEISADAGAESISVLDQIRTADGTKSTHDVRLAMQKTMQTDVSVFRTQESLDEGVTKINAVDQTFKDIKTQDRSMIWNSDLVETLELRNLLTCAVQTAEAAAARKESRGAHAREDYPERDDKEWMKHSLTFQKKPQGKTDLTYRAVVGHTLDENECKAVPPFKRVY
Procedure: Mitochondria were isolated by a method adapted from G.A. White [Biochem. Biophys. Res. Commun. 44: 1212, 1971]. Twenty to thirty grams of Botrytis cinerea isolate Nick were resuspended in 250 mL 0.25M sucrose, 5mM Na4 EDTA, pH 7.0 (+) 0.15% (w/v) bovine serum albumin (BSA) and placed in a Bead Beater chamber (Biospec Products, Bartlesville, Ok.). Zirconium oxide beads (0.5mm) were added to finish filling the chamber. Four 30 second beats separated by 2 minute temperature equilibration periods in the cold were used to break the mycelia. A crude mitochondrial preparation was harvested from the homogenate by differential centrifugation at 4° C. and resuspended in BSA-free sucrose/EDTA media and used for SDH assays.
The succinate dehydrogenase activity was measured at 600 nm in 50 mM potassium phosphate, pH 7.2, 1 mM KCN, 45 μM 2,6-dichlorophenolindophenol (DCPIP) and 17 mM disodium succinate (final volume, 1 mL) with a Perkin-Elmer Lambda 7 ultraviolet-visible spectrophotometer. The test compounds were added as acetone solutions (final concentration of acetone, 1% (v/v)). The mitochondrial preparatons were used to initiate the reaction. All rates were corrected for endogenous activities minus succinate. Semilog plots of percentage inhibition versus test compound concentration were used to determine inhibition expressed as I50 (μM) which is the concentration required to inhibit the rate of DCPIP reduction by 50%. The commercial fungicide carboxin was used as standard throughout.

Botrytis cinerea [1] = experiment: Eggplant grey mold; type: in vivo; parameters: scale not given here; details: inoculated 24 h later, rated after 3-4 days; for Disease Control Rating at 20 ppm: eggplant sprayed with 20 ppm; for Disease Control Rating at 100 ppm: eggplant sprayed with 100 ppm; for Disease Control Rating at 500 ppm: eggplant sprayed with 500 ppm
Procedure: Eggplant seed are planted in 2.25" square pots, six per pot, and maintained in growth chambers set at 23° C., 80% humidity, and 12 h photoperiod. When the plants are at the cotyledon stage (14-18 days afterplanting), the plants are sprayed with 1.5 mL/pot of 500, 100 or 20 ppm 2:3 acetone:water (with 0.5% Tween® 20) formulations of the test compounds.
Twenty-four hours later the plants are inoculated with Botrytis cinerea, approximately 0.5 mL/pot of a 4×10^6 spore/mL suspension. The plantes are incubated at 23° C. and 100% humidity for 3-4 days, at which time disease control ratings are made based on presence and severity of Botrytis lesions.

Botrytis cinerea [2] = experiment: Vine grey mold (grape berries); type: in vivo; details: average of six berries, 7-10 days; for pest or weed control at 50 ppm: grape berries treated with 50 ppm, read-out: % DISEASE CONTROL 50 ppm; for pest or weed control at 200 ppm: grape berries treated with 200 ppm, read-out: % DISEASE CONTROL 200 ppm
Procedure: Grape berries, which have been washed and surfaced sterilized in 70% ethanol for one minute, are, except for the negative controls, treated with 0.2 mL of a 2:3 acetone/water formulation (containing 0.05% Tween® 20) of 200 or 50 ppm of the test compounds and placed one per well in 12-well plates. Six berries per treatment level are used. Twenty-four hours later each berry is inoculated with Botrytis cinerea conidia, 0.2 mL of 10^6 spores/mL suspension. The plates are incubated at 20° C. with a 12 hours photoperiod for 7-10 days and the percent surface area infected with the disease is determined for each replicate using the values of 0, 1, 2, 5, 7, 10, 15, 20, 25, 30, 35, 40, 45, 50, 55, 60, 65, 70, 75, 80, 85, 90, 95, and 100%. Treatment means are calculated and percent disease control is determined by the formula [(control mean - treatment mean)/control means]×100.
Some of the compounds have been tested more than once and the results shown are the average of the number of tests reported.

Rhizoctonia solani = experiment: Rice sheath blight; type: in vivo; parameters: scale not given here; details: inoculated two days later, rated after 7 days, average of five plants; for Disease Control Rating at 0.02 mg/mL: foliage and soil sprayed with 0.02 mg/mL; for Disease Control Rating at 0.1 mg/mL: foliage and soil sprayed with 0.1 mg/mL; for Disease Control Rating at 0.5 mg/mL: foliage and soil sprayed with 0.5 mg/mL
Procedure: Rice plants, 11 to 15 days old, are grown in 7.65 cm^2 pots. Each plant in the treatment groups is treated by spraying both the foliage and the soil surface, each with 2 mL of a water/acetone/Tween®20 formulation containing 0.5, 0.1, or 0.02 mg/mL of Compound A. The pots are placed in flood trays which are filled with water to just below the soil line. Two days later, approximately two grams of Rhizoctonia solani inoculum, cultured on rice grain for four to eight weeks, is applied to the base of the rice plants in each pot. After 7 days in a 25° C. high humidity growth chamber, each plant is evaluated for the level of disease contro as compared to untreated controls by the following scale and the average of five plants per treatment level is calculated.

| Structure (SMILES) | IC50 (succinate dehydrogenase) | Disease Control Rating at 20 ppm (Botrytis cinerea [1]) | Disease Control Rating at 100 ppm (Botrytis cinerea [1]) | Disease Control Rating at 500 ppm (Botrytis cinerea [1]) | pest or weed control at 50 ppm (Botrytis cinerea [2]) | pest or weed control at 200 ppm (Botrytis cinerea [2]) | Disease Control Rating at 0.02 mg/mL (Rhizoctonia solani) | Disease Control Rating at 0.1 mg/mL (Rhizoctonia solani) | Disease Control Rating at 0.5 mg/mL (Rhizoctonia solani) |
| --- | --- | --- | --- | --- | --- | --- | --- | --- | --- |
| Cn1nc(C(F)(F)F)c(C(=O)Nc2ccccc2[C@@H]2C[C@H]3CC[C@@H]2C3)c1F (relative stereo) [Example 85, 1H-pyrazole-4-Carboxamide, N-(2-bicyclo[2.2.1]hept-2-ylphenyl)-5-fluoro-1-methyl-3-(trifluoromethyl)-, exo-] | 0.01 µM | 0 | 1 | 2 | 28% | 99% | 1 | 3 | 3 |
| Cn1nc(C(F)(F)F)c(C(=O)Nc2ccccc2[C@@H]2C[C@H]3CC[C@@H]2C3)c1Cl (relative stereo) [Example 88, 1H-pyrazole-4-carboxamide, N-(2-bicyclo[2.2.1]hept-2-ylphenyl)-5-chloro-1-methyl-3-(trifluoromethyl)-, exo-] | 0.035 µM | – | – | 0 | 0% | 0% | – | – | 0 |
| Cn1cc(C(=O)Nc2ccccc2[C@@H]2C[C@H]3CC[C@@H]2C3)c(C(F)(F)Cl)n1 (relative stereo) [Example 91, 1H-pyrazole-4-carboxamide, N-[2-bicyclo[2.2.1]hept-2-ylphenyl]-3-(chlorodifluoromethyl)-1-methyl-, exo-] | 0.078 µM | – | – | 0 | 0% | 14% | – | – | 0 |
| Cc1c(C(=O)Nc2ccccc2[C@@H]2C[C@H]3CC[C@@H]2C3)c(C(F)(F)F)nn1C (relative stereo) [Example 100, 1H-pyrazole-4-carboxamide, N-(2-bicyclo[2.2.1]hept-2-ylphenyl)-1,5-dimethyl-3-(trifluoromethyl)-, exo-] | 0.19 µM | – | – | 0 | 0% | 22% | 0 | 1 | 2 |
| Cn1cc(C(=S)Nc2ccccc2[C@@H]2C[C@H]3CC[C@@H]2C3)c(C(F)F)n1 (relative stereo) [Example 102, 1H-pyrazole-4-carbothioamide, N-(2-bicyclo[2.2.1]hept-2-ylphenyl)-3-(difluoromethyl)-1-methyl-, exo-] | 16 µM | – | – | 1 | 88% | 83% | 3 | 3 | 3 |
| Cc1c(C(=S)Nc2ccccc2[C@@H]2C[C@H]3CC[C@@H]2C3)c(Cl)nn1C (relative stereo) [Example 103, 1H-pyrazole-4-carbothioamide, N-(2-bicyclo[2.2.1]hept-2-ylphenyl)-3-chloro-1,5-dimethyl-, exo-] | 0.52 µM | – | – | 0 | 5% | 18% | – | – | 0 |
| Cc1nn(C)c(Cl)c1C(=O)Nc1ccccc1[C@@H]1C[C@H]2CC[C@@H]1C2 (relative stereo) [Example 106, 1H-pyrazole-4-carboxamide, N-(2-bicyclo[2.2.1]hept-2-ylphenyl)-5-chloro-1,3-dimethyl-, exo-] | 0.094 µM | – | – | 0 | 9% | 3% | 2 | 3 | 3 |
| Cc1ccccc1NC(=O)c1c(C)nn(C)c1C [Compound H, N-(2-methylphenyl)-1,3,5-(trimethyl)-4-pyrazolecarboxamide, reference compound] | 475 µM | – | – | 0 | 5% | 9% | – | – | 0 |
| Cn1cc(C(=O)Nc2ccccc2C2CCCCC2)c(C(F)F)n1 [Example 1, 1H-pyrazole-4-carboxamide, N-(2-cyclohexylphenyl)-3-(difluoromethyl)-1-methyl-] | 0.0095 µM | 3 | 3 | 3 | 92% | 94% | 2 | 0 | 0 |
| Cn1cc(C(=O)Nc2ccccc2C2CCCCC2)c(C(F)(F)F)n1 [Example 2, 1H-pyrazole-4-carboxamide, N-(2-cyclohexylphenyl)-1-methyl-3-(trifluoromethyl)-] | 0.012 µM | 1 | 3 | 3 | 84% | 87% | 3 | 3 | 3 |
| Cc1nn(C)cc1C(=O)Nc1ccccc1C1CCCCC1 [Example 3, 1H-pyrazole-4-carboxamide, N-(2-cyclohexylphenyl)-1,3-dimethyl-] | 0.027 µM | 0 | 1 | 2 | 10% | 62% | – | – | 0 |
| Cn1cc(C(=O)Nc2ccccc2C2CCCCC2)c(C#N)n1 [Example 4, 1H-pyrazole-4-carboxamide, 3-cyano-N-(2-cyclohexylphenyl)-1-methyl-] | 0.065 µM | 1 | 2 | 2 | 29% | 58% | – | – | 0 |
| Cn1cc(C(=O)Nc2ccccc2C2CCCCC2)c(Br)n1 [Example 5, 1H-pyrazole-4-carboxamide, 3-bromo-N-(2-cyclohexylphenyl)-1-methyl-] | 0.0066 µM | 1 | 3 | 3 | 50% | 40% | – | – | 0 |
| Cc1nn(C)cc1C(=O)Nc1ccccc1C1CCCC1 [Example 6, 1H-pyrazole-4-carboxamide, N-(2-cyclopentylphenyl)-1,3-dimethyl-] | 0.25 µM | – | – | 1 | 0% | 20% | 0 | 0 | 1 |
